From PubChem BioAssay (NCI)
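How tested: cells in 96-well plates exposed to compound for 48 hours at five concentrations. TGI: total growth inhibition.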

Experiments:
Test in all cases: inhibition of tumour cell growth, NCI panel, 48 h
[1] = tested on: HT29 colon
[2] = tested on: MALME-3M melanoma
[3] = tested on: NCI/ADR-RES ovarian
[4] = tested on: PC-3 prostate
[5] = tested on: MDA-N
[6] = tested on: UACC-62 melanoma
[7] = tested on: NCI-H226 lung
[8] = tested on: SK-OV-3 ovarian
[9] = tested on: IGROV1 ovarian
[10] = tested on: MOLT-4 leukemia
[11] = tested on: HOP-92 NSCLC
[12] = tested on: U251 CNS
[13] = tested on: A549 NSCLC
[14] = tested on: SNB-75 CNS
[15] = tested on: NCI-H460 lung
[16] = tested on: NCI-H522 lung
[17] = tested on: LOX IMVI melanoma
[18] = tested on: SF-268 CNS
[19] = tested on: DU-145 prostate
[20] = tested on: A498 renal
[21] = tested on: MDA-MB-435
[22] = tested on: OVCAR-4 ovarian
[23] = tested on: BT-549 breast
[24] = tested on: UO-31 renal
[25] = tested on: UACC-257 melanoma
[26] = tested on: K-562 leukemia
[27] = tested on: COLO 205 colon
[28] = tested on: OVCAR-8 ovarian
[29] = tested on: MCF7 breast
[30] = tested on: TK-10 renal
[31] = tested on: SW-620 colon
[32] = tested on: T-47D breast
[33] = tested on: KM12 colon
[34] = tested on: NCI-H23 lung
[35] = tested on: SNB-19 CNS
[36] = tested on: SF-295 CNS
[37] = tested on: SF-539 CNS
[38] = tested on: HCT-15 colon
[39] = tested on: SK-MEL-2 melanoma
[40] = tested on: CAKI-1 renal
[41] = tested on: SK-MEL-5 melanoma
[42] = tested on: MDA-MB-231 breast
[43] = tested on: SK-MEL-28 melanoma
[44] = tested on: OVCAR-5 ovarian
[45] = tested on: OVCAR-3 ovarian
[46] = tested on: 786-0 renal
[47] = tested on: M14 melanoma
[48] = tested on: HCT-116 colon
[49] = tested on: HOP-62 NSCLC
[50] = tested on: RPMI-8226 leukemia
[51] = tested on: HCC-2998 colon
[52] = tested on: ACHN renal
[53] = tested on: HS 578T breast
[54] = tested on: SN12C renal
[55] = tested on: EKVX NSCLC
[56] = tested on: CCRF-CEM leukemia
[57] = tested on: RXF 393 renal

COc1ccc(N2C(=O)C3c4[nH]c5cccc(Cl)c5c4C4CCC(C(C)(C)C)CC4C3C2=O)cc1 (stereo unspecified)
TGI [1]: > 100 µM
TGI [2]: > 100 µM
TGI [3]: > 100 µM
TGI [4]: > 100 µM
TGI [5]: > 100 µM
TGI [6]: > 100 µM
TGI [7]: > 100 µM
TGI [8]: > 100 µM
TGI [9]: > 100 µM
TGI [10]: > 100 µM
TGI [11]: > 100 µM
TGI [12]: > 100 µM
TGI [13]: > 100 µM
TGI [14]: 53.2 µM
TGI [15]: > 100 µM
TGI [16]: > 100 µM
TGI [17]: > 100 µM
TGI [18]: > 100 µM
TGI [19]: > 100 µM
TGI [20]: > 100 µM
TGI [21]: > 100 µM
TGI [22]: > 100 µM
TGI [23]: > 100 µM
TGI [24]: > 100 µM
TGI [25]: > 100 µM
TGI [26]: > 100 µM
TGI [27]: > 100 µM
TGI [28]: > 100 µM
TGI [29]: > 100 µM
TGI [30]: > 100 µM
TGI [31]: > 100 µM
TGI [32]: > 100 µM
TGI [33]: > 100 µM
TGI [34]: > 100 µM
TGI [35]: > 100 µM
TGI [36]: > 100 µM
TGI [37]: > 100 µM
TGI [38]: > 100 µM
TGI [39]: > 100 µM
TGI [40]: > 100 µM
TGI [41]: > 100 µM
TGI [42]: > 100 µM
TGI [43]: > 100 µM
TGI [44]: > 100 µM
TGI [45]: > 100 µM
TGI [46]: > 100 µM
TGI [47]: > 100 µM
TGI [48]: > 100 µM
TGI [49]: 53.5 µM
TGI [50]: > 100 µM
TGI [51]: > 100 µM
TGI [52]: > 100 µM
TGI [53]: 90.7 µM
TGI [54]: > 100 µM
TGI [55]: > 100 µM

COc1ccc(-n2cnc3c(N)nc(N)nc32)cc1
TGI [1]: > 100 µM
TGI [2]: > 100 µM
TGI [56]: > 100 µM
TGI [3]: > 100 µM
TGI [4]: > 100 µM
TGI [5]: > 100 µM
TGI [6]: > 100 µM
TGI [7]: > 100 µM
TGI [8]: > 100 µM
TGI [9]: > 100 µM
TGI [10]: > 100 µM
TGI [11]: > 100 µM
TGI [12]: > 100 µM
TGI [13]: > 100 µM
TGI [14]: 77.9 µM
TGI [57]: > 100 µM
TGI [16]: > 100 µM
TGI [18]: > 100 µM
TGI [19]: > 100 µM
TGI [20]: > 100 µM
TGI [21]: > 100 µM
TGI [22]: > 100 µM
TGI [23]: > 100 µM
TGI [24]: > 100 µM
TGI [25]: > 100 µM
TGI [27]: > 100 µM
TGI [28]: > 100 µM
TGI [29]: > 100 µM
TGI [30]: > 100 µM
TGI [31]: > 100 µM
TGI [32]: > 100 µM
TGI [33]: > 100 µM
TGI [34]: > 100 µM
TGI [35]: > 100 µM
TGI [36]: > 100 µM
TGI [37]: > 100 µM
TGI [38]: > 100 µM
TGI [39]: > 100 µM
TGI [40]: > 100 µM
TGI [41]: > 100 µM
TGI [42]: > 100 µM
TGI [43]: > 100 µM
TGI [44]: > 100 µM
TGI [45]: > 100 µM
TGI [46]: > 100 µM
TGI [47]: > 100 µM
TGI [48]: > 100 µM
TGI [49]: > 100 µM
TGI [50]: > 100 µM
TGI [51]: > 100 µM
TGI [52]: > 100 µM
TGI [53]: 87 µM
TGI [54]: > 100 µM
TGI [55]: > 100 µM

C[C@@H]1OC(=O)C[C@H]2CC(=O)N(CCC3CN(C(=O)c4ccccc4)c4ccccc43)C[C@@H]21 (stereo partly specified)
TGI [1]: > 100 µM
TGI [2]: > 100 µM
TGI [3]: > 100 µM
TGI [4]: > 100 µM
TGI [5]: > 100 µM
TGI [6]: > 100 µM
TGI [8]: > 100 µM
TGI [9]: > 100 µM
TGI [10]: > 100 µM
TGI [11]: > 100 µM
TGI [12]: > 100 µM
TGI [13]: > 100 µM
TGI [14]: > 100 µM
TGI [57]: > 100 µM
TGI [15]: > 100 µM
TGI [16]: > 100 µM
TGI [18]: > 100 µM
TGI [19]: > 100 µM
TGI [20]: > 100 µM
TGI [21]: > 100 µM
TGI [22]: > 100 µM
TGI [23]: > 100 µM
TGI [24]: > 100 µM
TGI [25]: > 100 µM
TGI [26]: > 100 µM
TGI [27]: > 100 µM
TGI [28]: > 100 µM
TGI [29]: > 100 µM
TGI [30]: > 100 µM
TGI [31]: > 100 µM
TGI [32]: > 100 µM
TGI [33]: > 100 µM
TGI [34]: > 100 µM
TGI [35]: > 100 µM
TGI [36]: > 100 µM
TGI [38]: > 100 µM
TGI [39]: > 100 µM
TGI [40]: > 100 µM
TGI [41]: > 100 µM
TGI [42]: > 100 µM
TGI [43]: > 100 µM
TGI [44]: > 100 µM
TGI [45]: > 100 µM
TGI [46]: > 100 µM
TGI [47]: > 100 µM
TGI [48]: > 100 µM
TGI [49]: > 100 µM
TGI [50]: > 100 µM
TGI [51]: > 100 µM
TGI [52]: > 100 µM
TGI [53]: > 100 µM
TGI [55]: > 100 µM
